# According to patent US20240024403A1, “Compositions and Methods for Managing Weight” (Unigen, Inc., priority 2012, published 2024):
# “Also recorded” adds a separate entry of the source.
# Assay: High fat diet induced obesity (DIO) mouse model
# Format: in vivo, C57CL/6J mice
# Set-up: NSAH (sum) [NASH score]: scale not given here
# Settings: for Total Body Weight / Body Weight: in g (unit assumed)
# Protocol: C57CL/6J mice aged 4-6 weeks (Korea Research Institute of Bioscience & Biotechnology, Ohchang, Korea) were housed in Polycarbonate cages (five mice per cage) in a room with a 12 hr:12 hr light-dark cycle and an ambient temperature of 24° C. All the mice were fed a commercial chow diet for 1 week after arrival in the animal facility. Mice were then divided into normal and obesity groups and fed with normal diet (ND) and high fat diets (HFD) respectively. The HFD group was divided into multiple treatment groups: a high fat diet vehicle group (HFD), an orlistat (purchased as OTC drug Alli®) positive control treatment group (ORI, 40 mg/kg of animal weight, 2 times/day) and optionally a sibutramine positive control treatment group (10 mg/kg, 1 time/day). The HFD contained 340 g of fat/kg of HFD (310 g lard plus 30 g soybean oil; Harlan Laboratories, USA). The HFD was formulated to provide 60% of the total energy generated by the diet from fat by replacing carbohydrate energy with lard and soybean oil, whereas the normal diet (ND) group was fed a diet providing only 18% of the total diet energy from fat(Harlan Laboratories, USA).
# Body weight was measured once each week and feed intake was measured twice per week. At the end of the experimental period, following a 12 hr. fasting period, the animals were anesthetized with ether, and blood was drawn from the abdominal vein. Liver and kidney and adipose tissues (epididymal, retroperitoneal, perirenal adipose tissues) were removed from each animal, rinsed with physiological saline, and weighed. Serum concentrations of glucose, total cholesterol, triglycerides, and LDL-cholesterol were determined using automatic analyzer (INTEGRA 400, Roche, Germany). Statistical significance of test results was measured using the Student's t-test.
# [1] = mice fed a high fat diet, Mutamba fractions 250 mg/kg oral 2 times per day, mean
# [2] = orlistat 40 mg/Kg/day oral, 8 weeks
# [3] = orlistat 40 mg/kg oral, 7 weeks
# [4] = orlistat 40 mg/kg, 2 times/day, listed as orlistat
# [5] = score 0-3, orlistat 40 mg/kg oral
# [6] = week 1, DIO mice, oral twice daily, mg/kg/day: ORI 40, Combo (Composition 1A) 800, Magnolia 100, Yerba Mate 500, Morus 200
# [7] = week 1, DIO mice, combination (5:1) 1200 mg/kg twice a day by gavage, group mean
# [8] = week 1, mice fed a high fat diet, Mutamba fractions 250 mg/kg oral 2 times per day, mean
# [9] = week 2, DIO mice, oral twice daily, mg/kg/day: ORI 40, Combo (Composition 1A) 800, Magnolia 100, Yerba Mate 500, Morus 200
# [10] = week 2, DIO mice, combination (5:1) 1200 mg/kg twice a day by gavage, group mean
# [11] = week 2, mice fed a high fat diet, Mutamba fractions 250 mg/kg oral 2 times per day, mean
# [12] = week 3, DIO mice, oral twice daily, mg/kg/day: ORI 40, Combo (Composition 1A) 800, Magnolia 100, Yerba Mate 500, Morus 200
smiles,measurement,setting,value
"CCCCCCCCCCC[C@@H](C[C@@H]1OC(=O)[C@H]1CCCCCC)OC(=O)[C@H](CC(C)C)NC=O [ORI, orlistat]",FER (Food efficiency ratio),"mice fed a high fat diet, FER = body weight gain (g/day)/food intake (g/day), Mutamba fractions 250 mg/kg oral 2 times per day, mean",0.034
same,Body Weight Gain,[1],0.093 g/day
same,Food Intake,[1],2.769 g/day
same,Absolute Organ Weight: Epididymal Fat,[2],2.03 g
same,Absolute Organ Weight: Liver,[2],1.19 g
same,Absolute Organ Weight: PeriRenal Fat,[2],0.29 g
same,Absolute Organ Weight: Retroperitoneal Fat,[2],0.5 g
same,Absolute Organ Weight: Total Fat (sum of three fat pads),[2],2.82 g
same,Food Efficiency Ratio (FER),[2],−0.001
same,Food Intake (average),[2],3.147 g/day
same,Relative Organ Weight: Epididymal Fat,[2],0.05
same,Relative Organ Weight: Liver,[2],0.03
same,Relative Organ Weight: PeriRenal Fat,[2],0.01
same,Relative Organ Weight: Retroperitoneal Fat,[2],0.01
same,Relative Organ Weight: Total Fat,[2],0.07
same,Weight Gain (average),[2],-0.004 g/day
same,Food Efficiency Ratio (FER),[3],0.000
same,Food Intake (average per day),[3],3.195 g/day
same,Weight Gain (average per day),[3],0.000 g/day
same,blood biochemistry parameters vs HFD group,"orlistat 40 mg/kg, 2 times/day","statistically significant decrease in LDL-cholesterol; also recorded: statistically significant decreases in total cholesterol, LDL-cholesterol, and fasting glucose; also recorded: statistically significant decreases in ALT and LDL-cholesterol; also recorded: statistically significant decrease in ALT"
same,body weight gain vs HFD group,"orlistat 40 mg/kg, 2 times/day",greatest change in weight gain between week 2 and week 3; also recorded: statistically significant decreases in body weight gains each week after the first week of treatment; also recorded: statistically significant decreases in body weight gain across all weeks of the study; also recorded: statistically significant decreases in body weight gain from week 1 through to week 7; also recorded: statistically significant decreases in weight gain from week 1 through to week 8
same,body weight gain vs HFD group,[4],significant reduction in body weight gain at 7 weeks
same,"weight gain per day, food intake per day, food efficiency ratio (FER) vs HFD group",[4],significantly reduced FER
same,Liver pathology: Hepatocellular ballooning (0-2),"score 0-2, orlistat 40 mg/kg oral",0.67
same,Liver pathology: Lobular Inflammation (0-3),[5],1.33
same,Liver pathology: Steatosis (0-3),[5],0.67
same,NSAH (sum) [NASH score],"sum of scores, orlistat 40 mg/kg oral",2.67
same,Total Body Weight,"week 0, DIO mice, oral twice daily, mg/kg/day: ORI 40, Combo (Composition 1A) 800, Magnolia 100, Yerba Mate 500, Morus 200",40.22
same,Total Body Weight,"week 0, DIO mice, combination (5:1) 1200 mg/kg twice a day by gavage, group mean",38.40
same,Total Body Weight,"week 0, ORI 40 mg/kg, DIO mice (Table 52)",39.96
same,Total Body Weight,"week 0, ORI 40 mg/kg, DIO mice",42.76
same,Body Weight,"week 0, mice fed a high fat diet, Mutamba fractions 250 mg/kg oral 2 times per day, mean",39.76
same,Weight Gain,[6],−2.24
same,Total Body Weight,[6],37.98
same,Body Weight Gain,"week 1, DIO mice, SIB 10 mg/kg, ORI 40 mg/kg, Mutamba extract 32 (G1) 1000 mg/kg/day oral, mean",−2.59
same,Body Weight Gain,"week 1, DIO mice, SIB 10 mg/kg, ORI 40 mg/kg, Mutamba extract 33-2 G1 1000 mg/kg, mean",−3.05
same,Weight Gain,"week 1, DIO mice, combination (1:1) 2000 mg/kg twice a day, group mean",−3.20
same,Weight Gain,[7],−3.20
same,Total Body Weight,[7],35.20
same,Total Body Weight,"week 1, ORI 40 mg/kg, DIO mice (Table 52)",37.37
same,Total Body Weight,"week 1, ORI 40 mg/kg, DIO mice",38.73
same,Body Weight Gain,"week 1, ORI 40 mg/kg, mice fed high fat diet",−4.00
same,Body Weight Gain,[8],−3.05
same,Body Weight,[8],36.71
same,Weight Gain,"week 1, orlistat 40 mg/kg oral",−5.43
same,Weight Gain,[9],−6.14
same,Total Body Weight,[9],34.08
same,Body Weight Gain,"week 2, DIO mice, SIB 10 mg/kg, ORI 40 mg/kg, Mutamba extract 32 (G1) 1000 mg/kg/day oral, mean",−2.90
same,Body Weight Gain,"week 2, DIO mice, SIB 10 mg/kg, ORI 40 mg/kg, Mutamba extract 33-2 G1 1000 mg/kg, mean",−2.81
same,Weight Gain,"week 2, DIO mice, combination (1:1) 2000 mg/kg twice a day, group mean",−4.88
same,Weight Gain,[10],−4.88
same,Total Body Weight,[10],33.58
same,Total Body Weight,"week 2, ORI 40 mg/kg, DIO mice (Table 52)",37.05
same,Total Body Weight,"week 2, ORI 40 mg/kg, DIO mice",35.09
same,Body Weight Gain,"week 2, ORI 40 mg/kg, mice fed high fat diet",−7.38
same,Body Weight Gain,[11],−2.81
same,Body Weight,[11],36.95
same,Weight Gain,"week 2, orlistat 40 mg/kg oral",−6.69
same,Weight Gain,[12],−4.91
same,Total Body Weight,[12],35.32
same,Body Weight Gain,"week 3, DIO mice, SIB 10 mg/kg, ORI 40 mg/kg, Mutamba extract 32 (G1) 1000 mg/kg/day oral, mean",−2.55
same,Body Weight Gain,"week 3, DIO mice, SIB 10 mg/kg, ORI 40 mg/kg, Mutamba extract 33-2 G1 1000 mg/kg, mean",−2.63
same,Weight Gain,"week 3, DIO mice, combination (1:1) 2000 mg/kg twice a day, group mean",−3.34
same,Weight Gain,"week 3, DIO mice, combination (5:1) 1200 mg/kg twice a day by gavage, group mean",−3.34
